Laboratory results published in patent US20060052419A1, “Use of pyridly amides as inhibitors of angiogenesis” (priority 2002, published 2006).

How the values were obtained:
[1] = test system: VEGF production in HepG2 cells; assay: VEGF production in HepG2 cells (ELISA of culture supernatant); type: cell-based, human
Description: Trypsin/EDTA: 0.05% (w/v) trypsin (Difco, Detroit, USA)+0.016% (w/v) EDTA (Sigma, Deisenhofen, Germany). N-[4-(1-benzoyl-piperidin-4-yl)-butyl]-3-(pyridin-3-yl)-acrylamide (in the following also referred to as BPPA) was synthesized as described in the literature, by the department of chemistry at Klinge Pharma GmbH, Munich, Germany.
Stock solutions of test compound: a 10 mM solution was prepared in dimethyl sulfoxide (DMSO) and stored at −18° C.; further dilution steps were done in ethanol.
The human-derived tumor cell lines HepG2 (liver carcinoma) was obtained from the American Type Culture Collection (ATCC), Rockville, Md., USA.
Richter's Improved Minimal Essential Medium, Zinc Option (IMEM-ZO), was purchased from Gibco BRL, Life Technologies (Eggenstein, Germany). The standard medium MEM and the human serum albumin were purchased from Sigma (Deisenhofen, Germany). The medium powder was dissolved in deionized water, the pH titrated to 7.2 with HCl/NaOH and sterilized by filtration. The medium was supplemented with 10% fetal calf serum (FCS), PAN Systems GmbH, Aidenbach, Germany.
Monolayer cells were detached from 75 cm^2 flasks by removing the growth medium and adding 3 ml trypsin/EDTA solution to each flask. After about 5-10 minutes incubation at 37° C., when the cells were detached from the surface of the dishes, trypsinization was stopped by adding 3 ml Richter's IMEM-ZO medium containing 10% FCS. The cells were suspended by repeated pipetting. For predilution, an aliquot of 20 μl was added to 10 ml Casyton isotonic solution (No. 043-90037P, Scharfe System, Reutlingen, Germany) using a Sysmex Auto Dilutor Type AD-260 (Toa, Medical Electronics Co. Ltd., Kobe, Japan). The cell number was determined by electronic cell volume measurements by counting with a CASY 1 Cell Counter & Analyzer System, Model TTC (Schärfe System, Reutlingen, Germany) equipped with a 60 μm capillary. Following dilution in growth medium (IMEM-ZO), the cells were finally seeded at a density of 25,000 cells per 1000 μl in 24-well culture dishes (Greiner, Frickenhausen, Germany) for the VEGF assay and incubated at 37° C. in a humidified atmosphere of 5% CO2 in air.
After six days of incubation, when the cells were nearly confluent, the medium was removed and cultures were replenished with 1 ml fresh serum free MEM medium containing 0.1% human serum albumin plus the test substance or the solvent ethanol as control. The cells were then incubated at 37° C. in a humidified atmosphere of 5% CO2 in air. On the next day the medium was removed again and the cultures were incubated with further 0.5 ml serum free MEM containing 0.1% human serum albumin plus the test substance or the solvent ethanol as control. After 48 and 72 hours the medium was collected, centrifuged at 1000 rpm for 5 minutes to remove cell debris. Supernatants were stored at −20° C. until quantification of the VEGF concentration. Furthermore the protein content of the remaining cell layer in each well was determined as reference parameter.
VEGF determination was measured in the supernatants of the cell cultures using a commercially available ELISA kit (R&D, Systems, Wiesbaden/Germany). The method for the determination was performed as described in the test kit brochure.
The results are summarized in the following Table 1, where the VEGF concentration in the supernatant after 48 h and 72 h of incubation was determined. […]

[2] = test system: murine renal cell carcinoma (RENCA); assay: Blood vessel density in primary tumors of murine renal cell carcinoma (RENCA) model; type: in vivo, Balb/c mice; settings: sacrifice day 21
Description: Murine RENCA cells were originally obtained from a tumor that arose spontaneously in the kidney of BALB/c mice. Histologically, RENCA consists of granular cell type adenocarcinoma, which is pleomorphic with large nuclei. Monolayers of murine RENCA cells were grown in RPMI 1640 with phenol red supplemented with 10% FCS, 2 mM L-glutamine, 100 units penicillin/ml, and 100 μg of streptomycin/ml. RENCA cells were cultured in a humidified atmosphere of 95% air and-5% carbon dioxide at 37° C. Media were routinely changed every 3 days.
For the in vivo administration N-[4-(1-benzoyl-piperidin-4-yl)-butyl]-3-(pyridin-3-yl)-acrylamide was solubilized in a 0.9% saline solution and TNP-470 in a saline solution containing 3% absolute ethanol.
All experiments were carried out using 6-8 weeks old male Balb/c mice (approximate weight, 20 g). Mice are maintained in separated conventional housing at constant temperature and humidity […]
All animals were sacrificed on day 21 after tumor implantation and the tumor tissue of all animals was surgically removed and quickly frozen in liquid nitrogen. […] For the visualization of the blood vessels, immunohistochemical staining for CD 31 (PECAM-1 and MEC 13.3; PharMingen, San Diego, Calif.) was performed, and vessels were counted microscopically using a defined magnification.

[3] = Maximum tolerated dose (MTD); design: species or system Balb/c mice; settings: Balb/c, mouse, in vivo
Description: N-[4-(1-benzoyl-piperidin-4-yl)-butyl]-3-(pyridin-3-yl)-acrylamide was given to the animals p.o. twice a day on days 10, 11, 12, 13, 14, and 15 after tumor implantation. The doses were 3, 5, 6, or 10 mg/kg per each administration. TNP-470 was injected into the animals s.c. on days 2, 4, 6, 8, 10, 12, 14, 16, 18 and 20 after tumor implantation at the maximum tolerated dose, 30 mg/kg. Control animals received the vehicle (0.9% saline solution) p.o. twice a day on days 10, 11, 12, 13, 14, and 15 after tumor implantation. At least seven animals per test group were used.
TNP-470 was administered at the MTD (maximum tolerated dose), 30 mg/kg, and over a longer time range than BPPA which was given below the MTD (approximately 12 mg/kg).

Compound	VEGF concentration in the supernatant ([1]; 2 nM compound in medium, 48 hours incubation) [pg/200 μl]	VEGF concentration in the supernatant ([1]; 2 nM compound in medium, 72 hours incubation) [pg/200 μl]	VEGF concentration in the supernatant ([1]; 20 nM compound in medium, 48 hours incubation) [pg/200 μl]	VEGF concentration in the supernatant ([1]; 20 nM compound in medium, 72 hours incubation) [pg/200 μl]	inhibition of the production of VEGF ([1]; after 48 hours of incubation, FIG. 1)	vessel density in the RENCA tumor ([2]; 3, 5, 6 and 10 mg/kg p.o. twice a day on days 10-15 after tumor implantation, CD 31 staining)	MTD ([3]; po) [mg/kg]	vessel density in the RENCA tumor, effectiveness compared to BPPA ([2]; 30 mg/kg (MTD) s.c. on days 2, 4, 6, 8, 10, 12, 14, 16, 18 and 20 after tumor implantation)	MTD ([3]; sc) [mg/kg]
O=C(C=Cc1cccnc1)NCCCCC1CCN(C(=O)c2ccccc2)CC1 [BPPA, N-[4-(1-benzoyl-piperidin-4-yl)-butyl]-3-(pyridin-3-yl)-acrylamide]	208.30	0.00	0.00	0.00	inhibited the production of VEGF in HepG2 cells very effectively	significantly reduced the vessel density	~12	–	–
CO[C@@H]1[C@H](OC(=O)NC(=O)CCl)CC[C@]2(CO2)[C@H]1[C@@]1(C)O[C@@H]1CC=C(C)C [TNP-470, reference compound]	–	–	–	–	–	–	–	not as effective as BPPA	30
